# Earlier results as cited in patent publication US6472370B1, “Anticonvulsant derivatives useful in treating post traumatic stress disorder” (Ortho-McNeil Pharmaceutical, Inc., priority 1998, dated 2002).
# Like-named read-outs stand apart in the source and are kept apart here.
# Columns and labels:
# [1] = test system: simple and complex partial seizures and secondarily generalized seizures; details: clinical trials of human epilepsy; adjunctive therapy or monotherapy
# [2] = test system: seizures in several rodent models of epilepsy
# kindling seizures = details: animal (rodent) model of kindling
structure (smiles),measurement,setting,value
"CC1(C)O[C@@H]2[C@@H](CO[C@@]3(COS(N)(=O)=O)OC(C)(C)O[C@@H]23)O1 [topiramate, 2,3:4,5-bis-O-(1-methylethylidene)-β-D-fructopyranose sulfamate]",efficacy in treating simple and complex partial seizures and secondarily generalized seizures,[1],effective
same,block of seizures,[2],effectively block seizures
same,block of seizures in kindled epilepsy / kindling seizures,kindling seizures,effectively block seizures
same,block of seizures in kindled epilepsy / kindling seizures,kindling seizures; listed as Topiramate,effective
